From article PMC3258254, “Intestinal Absorption and First-Pass Metabolism of Polyphenol Compounds in Rat and Their Transport Dynamics in Caco-2 Cells” (PLoS ONE, 2012)

Key:
[1] = Pharmacokinetics in rat plasma after oral administration of polyphenols; conditions: for AUC / Cmax: 50 µmol•kg^–1; for K / T1/2Ke / Tpeak: rat plasma, oral 50 µmol•kg^–1, mean ± SD, n = 6
Description: Male Sprague-Dawley rats (70–110 days old) weighing between 270 g and 320 g were obtained from the experimental animal centre of the Fourth Military Medical University, Xi'an, China. The rats were subjected to fasting overnight, with free access to water before the day of experiment.
The polyphenol compounds solution, prepared in 0.5% sodium carboxyl methyl cellulose (CMC-Na), were orally administrated to the rats using a dose of 50 µmol•kg^–1. Blood samples were collected from the vena abdominalis under light ether anaesthesia at different times (0.08, 0.17, 0.5, 1, 2, 4, 8, 12, 16, 24 and 36 h). The samples were immediately centrifuged for 10 min at 7185 g to obtain plasma, which was then frozen at −70°C until required for analysis.
Metabolite samples were analyzed after treatment with β-glucuronidase or sulphatase [21]–[22]. The samples (0.2 mL) were extracted with 1 mL ethyl acetate by vigorous vortex mixing for 1 min, then centrifuged at 3000× g at room temperature for 10 min. The supernatants were evaporated to dryness under N2, reconstituted in 100 µL of methanol, and analyzed for the presence of polyphenols and their derivatives using liquid chromatography coupled with tandem mass spectrometry (LC/MS/MS) using a Quattro Premier system operating under MassLynx MS Software, v4.1 (Waters Corporation, Milford, MA, USA). […] Quantitation was performed by multiple reaction monitoring of the deprotonated precursor ion and the related product ion for these polyphenols using the internal standard method with peak area ratio [23]–[24]. Collision-induced dissociation was achieved using argon as the collision gas. Standard solutions of the polyphenol compounds (1 µg•mL^–1) were applied to optimize the detection conditions in the presence of mobile phase. […] The column temperature and flow rate were 25°C and 0.2 mL⋅min^–1, respectively.

rat small intestine = assay: In situ intestinal perfusion model (isolated rat small intestine, luminal and vascular perfusion); format: in vivo
Experimental: The rats were anaesthetized with an intra-abdominal injection of a mixture containing 40 mg•kg^–1 sodium phenobarbital. The animals were then heparinized (90 U•kg^–1) via the vena caudalis. […] Briefly, a segment of intestine between 7 and 11 cm long was identified and separated and silicone tubing was placed inside both ends of the segment. The tube at the proximal side was connected to a peristaltic pump for luminal perfusion.

Caco-2 cells [2] = assay: Cellular uptake / intracellular accumulation in Caco-2 cells, with or without transporter inhibitors; format: in vitro ADME, human; conditions: for Intracellular accumulation / uptake in the presence of phloridzin: 50 µM phloridzin (SGLT1 inhibitor); for Time of maximum intracellular accumulation (given as Cmax): 50 µM, parent compound in Caco-2 cells; for Intracellular accumulation after pre-treatment with cyclosporine A: 100 µM cyclosporine A (P-glycoprotein and MRP2 inhibitor); for Intracellular accumulation after pre-treatment with verapamil: 100 µM verapamil (P-glycoprotein inhibitor)
Experimental: Caco-2 cells, derived from human colorectal adenocarcinoma cells, were obtained from the American Type Culture Collection (Manassas, VA, USA) and maintained in plastic culture flasks (Corning Costar, Cambridge, MA, USA). […] Cells were subcultured to 80% confluency. For all cellular uptake studies of polyphenols, Caco-2 cells were seeded at a cell density of 6×10^5 cells•cm^–2 on six-well plastic plates. Cells were used 14 to 21 days after seeding. The culture medium was replaced with fresh medium 24 h before the uptake experiments. Polyphenol compounds (50 µM) were added to evaluate the uptake characteristics of Caco-2 cells. To determine the intracellular concentration of polyphenols, the cell lysate was obtained by subjecting the drug-containing cells to three freeze-thaw cycles in liquid nitrogen. Protein concentrations were measured using the Bradford method with bovine serum albumin as a standard. For transport experiments, Caco-2 cells were seeded at a cell density of 1×10^5 cells•cm^−2 on Millicell Cell Culture Inserts (Millipore, Billerica, MA, USA). […] The culture medium was replaced with fresh medium 24 h before the transport experiments. Polyphenol compounds (50 µM) were added from the apical or basolateral side to evaluate the transport characteristics of the cells. […] The samples were collected and stored at −70°C until needed for analysis.

[3] = Transport (permeability, Papp) across Caco-2 cell monolayers; format: in vitro ADME, human; conditions: human, mean ± SD; for Papp A→B at 50 µM: Caco-2, apical to basolateral, n = 6, read-out: Papp AP to BL; for Papp B→A at 50 µM: Caco-2, basolateral to apical, n = 6, read-out: Papp BL to AP
Experimental: (§1) Caco-2 cells, derived from human colorectal adenocarcinoma cells, were obtained from the American Type Culture Collection (Manassas, VA, USA) and maintained in plastic culture flasks (Corning Costar, Cambridge, MA, USA). The cells were cultured in Dulbecco's modified Eagle's minimal essential medium supplemented with 1% non-essential amino acids, 1% L-glutamine, 20% foetal bovine serum, 100 U•mL^–1 penicillin, and 0.1 mg•mL^–1 streptomycin, and were grown in a humidified atmosphere of 5% CO2 in air at 37°C (Figure S1). Cells were subcultured to 80% confluency.
(§2) For transport experiments, Caco-2 cells were seeded at a cell density of 1×10^5 cells•cm^−2 on Millicell Cell Culture Inserts (Millipore, Billerica, MA, USA). Cells were used 19 to 21 days after seeding, by which time the transepithelial electrical resistance value was >300 Ω•cm^–2. The culture medium was replaced with fresh medium 24 h before the transport experiments. Polyphenol compounds (50 µM) were added from the apical or basolateral side to evaluate the transport characteristics of the cells. To investigate the role of different transporters, Caco-2 cells were preincubated with verapamil (an inhibitor of P-glycoprotein), cyclosporine A (a dual inhibitor of P-glycoprotein and multi-drug resistance protein 2, MRP2), or phloridzin, (a selective inhibitor of sodium/glucose cotransporter 1, SGLT1) to investigate the absorptive and transport changes of the polyphenol compounds [19]–[20]. The samples were collected and stored at −70°C until needed for analysis.

Caco-2 cells [4] = assay: as above; format: in vitro ADME, human; conditions: 50 µM, parent compound
Experimental: as §1, §2

[5] = male, Sprague-Dawley, rat, plasma, po
[6] = male, Sprague-Dawley, rat, in vivo, po
[7] = 1500 nmol applied, perfusion 60 min
[8] = 1500 nmol applied, perfusion 60 min, mean ± SD, n = 3

| AUC [1, 5] | Cmax [1, 5] | K [1] | T1/2Ke [1] | Tpeak [1] | Total percentage of parent compound and metabolites, luminal side compared with vascular side (rat small intestine; rat, in vivo) | Luminal effluent, % of delivered dose (rat small intestine; rat, in vivo, 60 min) | Intracellular accumulation / uptake in the presence of phloridzin (Caco-2 cells [2]) | Time of maximum intracellular accumulation (given as Cmax) (Caco-2 cells [2]) | Intracellular accumulation after pre-treatment with cyclosporine A (Caco-2 cells [2]) | Intracellular accumulation after pre-treatment with verapamil (Caco-2 cells [2]) | Papp A→B at 50 µM [3] | Papp B→A at 50 µM [3] | Permeability value BL to AP compared with AP to BL (Caco-2 cells [4]) | SMILES | further results |
| --- | --- | --- | --- | --- | --- | --- | --- | --- | --- | --- | --- | --- | --- | --- | --- |
| 659 ± 25 ng·h/mL | 42 ± 2 ng/mL | 0.16±0.02 ^1 h^−1 | 2.11 ± 0.03 h | 0.50 ± 0.01 h | two- to three-fold greater | 53.87 ^2% | no changes were observed | 10 min | clearly increased | clearly increased | 13.8 ± 1.21 ×10⁻⁶ cm/s | 12.9 ± 2.54 ×10⁻⁶ cm/s | no changes | O=c1cc(-c2ccc(O)cc2)oc2cc(O)cc(O)c12 [Apigenin] | – |
| 1720 ± 57 ng·h/mL | 326 ± 18 ng/mL | 0.08 ± 0.01 h⁻¹ | 8.00 ± 0.28 h | 3.00 ± 0.01 h | no clear differences | 36.82 ^2% | reduced the cellular uptake | 10 min | increased the uptake | increased the uptake | 10.8 ± 2.34 ×10⁻⁶ cm/s | 27.4 ± 4.19 ×10⁻⁶ cm/s | much greater (by a factor of two) | Cc1cc(O)c2c(c1)C(=O)c1cccc(O)c1C2=O [Chrysophanol] | Vascular side, % of delivered dose (rat small intestine; rat, in vivo, 60 min): 32.22 ^2% |
| 98 ± 7 ng·h/mL | 157 ± 13 ng/mL | 0.38 ± 0.03 h⁻¹ | 1.82 ± 0.05 h | – | – | – | no changes were observed | increased in a time-dependent manner | clearly increased | clearly increased | 11.3 ± 3.45 ×10⁻⁶ cm/s | 7.86 ± 2.67 ×10⁻⁶ cm/s | lower | Oc1ccc(/C=C/c2cc(O)cc(O)c2)cc1 [Resveratrol] | Luminal effluent, % of delivered dose (rat small intestine; [7]): 35.37 ^2%; Vascular side, % of delivered dose (rat small intestine; [7]): 12.74 ^2%; Luminal effluent, amount (rat small intestine; [8]): 536 ± 27 nmol; Vascular side, amount (rat small intestine; [8]): 193 ± 11 nmol |

| SMILES | AUC [1, 5] | Cmax [1, 5] | K [1] | T1/2Ke [1] | Tpeak [1] | Total percentage of parent compound and metabolites, luminal side compared with vascular side (rat small intestine; rat, in vivo) | Luminal effluent, % of delivered dose (rat small intestine; rat, in vivo, 60 min) | Intracellular accumulation / uptake in the presence of phloridzin (Caco-2 cells [2]) | Time of maximum intracellular accumulation (given as Cmax) (Caco-2 cells [2]) | Intracellular accumulation after pre-treatment with cyclosporine A (Caco-2 cells [2]) | Intracellular accumulation after pre-treatment with verapamil (Caco-2 cells [2]) | Papp A→B at 50 µM [3] | Papp B→A at 50 µM [3] | Permeability value BL to AP compared with AP to BL (Caco-2 cells [4]) | further results |
| --- | --- | --- | --- | --- | --- | --- | --- | --- | --- | --- | --- | --- | --- | --- | --- |
| Cc1cc(O)c2c(c1)C(=O)c1cc(O)cc(O)c1C2=O [Emodin] | – | – | 0.23 ± 0.04 h⁻¹ | 2.93 ± 0.04 h | 0.50 ± 0.01 h | – | – | reduced the cellular uptake | 10 min | increased the uptake | increased the uptake | 9.52 ± 1.45 ×10⁻⁶ cm/s | 24.4 ± 3.22 ×10⁻⁶ cm/s | much greater (by a factor of two) | Plasma concentration of glucuronidated metabolites relative to sulphated metabolites [1, 6]: 10 fold; AUC [1, 6]: 809 ± 17 ng·h/mL; Cmax [1, 6]: 72 ± 6 ng/mL; Total percentage of parent compound and metabolites, luminal side compared with vascular side (rat small intestine; isolated intestine perfusion, estimated): two- to three-fold greater |
